“Also recorded” adds a separate entry of the source. Where two headings read alike, the source gives them in different places.
Experiments:
[1] = Pharmacokinetics of LSD by CYP genotype, pooled analysis of four phase 1 studies; details: for Cmax: human, oral, 100 ug, LSD Cmax, compartmental modeling, 100 μg LSD dose, mean±SD
[2] = Holze et al., 2021b; cited from earlier work
[3] = system: cytochrome P450 enzymes (CYPs); details: human liver microsomes; cited from earlier work
[4] = system: cytochrome P450 enzymes (CYPs); details: human liver S9 fraction; cited from earlier work
[5] = cited from earlier work; for subjects with bad drug effects (50% or more on a 0-100% scale at any time point): Dolder et al., 2017a
[6] = Acute subjective effects of LSD (VAS, 5D-ASC) by genotype, pooled phase 1 studies; format: in vivo, humans
Method: The Visual Analog Scales (VASs, FIG. 14, Table S5) were presented as 100 mm horizontal lines (0-100%), marked from “not at all” on the left to “extremely” on the right. Subjective effects like “closeness”, “talkative”, “open”, “concentration”, “speed of thinking”, and “trust” were bidirectional (±50 mm). The VASs were applied before and 0, 0.5, 1, 1.5, 2, 2.5, 3, 4, 5, 6, 7, 8, 9 and 10 h after LSD or placebo administration.
The 5 Dimensions of Altered States of Consciousness (5D-ASC) scale (Dittrich, 1998; Studerus et al., 2010) was administered at the end of the acute drug effects to retrospectively rate peak drug responses. The main subscales describing alterations of consciousness are Oceanic Boundlessness (OB), Anxious of Ego Dissolution (AED), Visionary Restructuralization (VR) (FIG. 16).

[7] = human, Dolder et al., 2015; cited from earlier work
[8] = Autonomic (physiological) effects of LSD, pooled phase 1 studies; format: in vivo, humans
Method: Blood pressure, heart rate, and body temperature were assessed repeatedly before and 0, 0.5, 1, 1.5, 2, 2.5, 3, 4, 5, 6, 7, 8, 9, and 10 h after LSD or placebo administration. Systolic and diastolic blood pressure and heart rate were measured using an automatic oscillometric device (OMRON Healthcare Europe NA, Hoofddorp, Netherlands). The measurements were performed in duplicate at an interval of 1 minute and after a resting time of at least 5 minutes. The averages were calculated for the analysis. Mean arterial pressure (MAP) was calculated as diastolic blood pressure+(systolic blood pressure−diastolic blood pressure)/3. The rate pressure product (RPP) was calculated as systolic blood pressure×heart rate. Core (tympanic) temperature was measured using a Genius 2 ear thermometer (Tyco Healthcare Group LP, Watertown, N.Y., USA).

[9] = cited from earlier work; for duration of LSD effects (mean±SD) / duration of LSD effects (range): Dolder et al., 2017b
[10] = non-functional vs functional CYP2D6
[11] = non-compartmental analysis, plasma

CCN(CC)C(=O)[C@@H]1C=C2c3cccc4c3C(O)(C[C@H]2N(C)C1)C(=O)N4 (stereo partly drawn) [O-H-LSD, 2-oxo-3-hydroxy LSD]
AUC∞ values, CYP2D6 PMs compared with functional CYP2D6 subjects ([1]; metabolite in plasma after LSD administration): larger
area under the curve blood plasma concentration (total drug exposure), higher in CYP2D6 poor metabolizers than in functional CYP2D6 carriers [1, 10]: approximately 75%

CCN(CC)C(=O)[C@@H]1C=C2c3cccc4[nH]cc(c34)C[C@H]2N(C)C1 [LSD, Lysergic acid diethylamide]
5D-ASC OB, AED and anxiety ratings, 200 μg compared to 100 μg [2]: did not result in higher OB ratings but increased AED and anxiety
CYPs contributing to the N-demethylation of LSD to 6-nor-LSD (Nor-LSD) [3]: CYP2D6, 3A4, and 2E1
CYPs taking part in the formation of the main metabolite 2-oxo-3-hydroxy-LSD (O-H-LSD) [3]: CYP2C9, CYP1A2, CYP2E1, and CYP3A4
CYPs contributing to the hydroxylation of LSD [4]: CYP1A2 and CYP3A4
CYPs involved in the formation of Nor-LSD [4]: CYP2C19 and 3A4
subjects with bad drug effects (50% or more on a 0-100% scale at any time point) ([5]; 100 μg, 3 of 24 subjects): 12.5%
subjects with transient bad drug effects ([5]; 100 μg, 7 of 24 subjects, Holze et al., 2019a): 29%
subjects with bad drug effects (50% or more on a 0-100% scale at any time point) ([5]; 200 μg, 9 of 16 subjects): 56%
subjects with marked anxiety ([5]; 200 μg, sixteen healthy humans, Schmid et al., 2015): two
alterations of the mind (5D-ASC total, AED and VR subscales), CYP2D6 PMs compared with functional CYP2D6 subjects ([6]; 5D-ASC): significantly greater alterations of the mind
5D-ASC total score and VR subscale, homozygous carriers of HTR1A rs6295 G allele vs carriers of a C allele ([6]; HTR1A rs6295): rated lower; also recorded: lower total 5D-ASC, Visionary Restructuralization, and Blissful State ratings
5D-ASC total score and AED subscale, carriers of two HTR2A rs6313 A alleles vs G allele carriers ([6]; HTR2A rs6313): lower ratings; also recorded: lower alterations of the mind
duration of the acute subjective response, CYP2D6 PMs compared with functional CYP2D6 subjects ([6]; VAS any drug effect): substantially longer duration; also recorded: longer subjective effect durations
acute subjective effects compared to placebo ([6]; healthy subjects): significant acute subjective effects on all scales
parent drug excreted in urine [7]: ~1%
vital parameters, effect of 5-HT receptor genotypes ([8]; HTR1A, HTR1B, HTR2A genotypes): not affected
blood pressure, heart rate, and body temperature compared to placebo ([8]; healthy subjects): moderately increased
effect of CYP2D6 genotype on the autonomic response ([8]; in vivo): no relevant effect
effect of genetic polymorphisms of other CYPs on pharmacokinetics or subjective or autonomic effects ([1]; CYP1A2, CYP2B6, CYP2C19, CYP2C9): no relevant effect
exposure to LSD with lower CYP2D6 activity across all CYP2D6 genotype activity score groups ([1]; CYP2D6 activity score groups): significantly higher exposure
effect of sex or body weight on pharmacokinetics / concentration of LSD in plasma ([1]; LSD AUC∞ z-score vs body weight): no relevant effect; also recorded: did not relevantly alter
Cmax ([1]; plasma, CYP2D6 PMs (non-functional, N=7)): 2.37 ± 0.891 ng/mL
Cmax ([1]; plasma, functional CYP2D6 subjects (N=74)): 2.06 ± 0.999 ng/mL
AUC∞ and AUC10 values, CYP2D6 PMs compared with functional CYP2D6 carriers [1, 11]: significantly larger
Cmax, effect of CYP2D6 function [1, 11]: not significantly affected
area under the curve blood plasma concentration (total drug exposure), higher in CYP2D6 poor metabolizers than in functional CYP2D6 carriers [1, 10]: approximately 75%
half-life (T1/2), CYP2D6 PMs compared with functional CYP2D6 subjects [1, 10]: longer
mean peak concentration, higher in CYP2D6 PMs than in functional CYP2D6 ([1]; non-functional vs functional CYP2D6, non-significant): approximately 15%
duration of LSD effects (mean±SD) ([9]; 100 μg): 8.2 ± 2.1 h
duration of LSD effects (range) ([9]; 100 μg): 5 to 14 h
duration of subjective effects (mean±SD) ([9]; 100 μg, Holze et al., 2019): 8.5 ± 2.0 h
duration of subjective effects (range) ([9]; 100 μg, Holze et al., 2019): 5.3 to 12.8 h
duration of LSD effects (mean±SD) ([9]; 200 μg): 11.6 ± 1.7 h
duration of LSD effects (range) ([9]; 200 μg): 7 to 19.5 h

Source: patent US20220280501A1, “USING GENO- OR P[…] ADJUST LSD DOSING” (Universitätsspital Basel, priority 2021, published 2022)
